Data from ChEMBL document CHEMBL1148302, “Discovery of diarylacrylonitriles as a novel series of small molecule sortase A inhibitors” (J Med Chem, 2004).

The molecules below were run against T1, Sortase A (Staphylococcus aureus, UniProt Q9S446) (assay: Inhibitory activity towards SrtA (sortase A)).
T1 sequence (Q9S446 whole entry): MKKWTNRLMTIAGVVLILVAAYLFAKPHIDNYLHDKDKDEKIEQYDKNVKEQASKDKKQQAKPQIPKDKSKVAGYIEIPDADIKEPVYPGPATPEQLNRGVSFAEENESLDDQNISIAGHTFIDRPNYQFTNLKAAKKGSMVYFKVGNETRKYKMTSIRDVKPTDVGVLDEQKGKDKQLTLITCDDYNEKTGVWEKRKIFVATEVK

Row | SMILES | IC50 [µM]
1 | COc1ccc(CCc2ccc(OC)cc2)cc1 | > 1000
2 | COc1ccc(/C=C(/C(=O)O)c2ccc(OC)cc2)cc1 | > 1000
3 | COc1ccc(/C=C/c2ccc(OC)cc2)cc1 | > 1000
4 | COC(=O)/C(=C/c1ccc(OC)cc1)c1ccc(OC)cc1 | 231
5 | COc1ccc(/C=C(/C#N)c2ccc(OC)cc2)cc1 | 187
6 | COC(=O)/C(=C\c1ccc(OC)cc1)c1ccc(OC)cc1 | 909
7 | COc1ccc(CC(C#N)c2ccc(OC)cc2)cc1 (stereo unspecified) | > 1000
8 | COc1ccc(/C=C(/C(N)=O)c2ccc(OC)cc2)cc1 | 476
9 | COC(=O)C(Cc1ccc(OC)cc1)c1ccc(OC)cc1 (stereo unspecified) | > 1000
10 | COc1ccc(/C=C\c2ccc(OC)cc2)cc1 | > 1000
11 | COc1ccc(/C(C#N)=C/c2cc(OC)ccc2OC)cc1 | 9.24
12 | COc1ccc(/C(C#N)=C/c2cccc(OC)c2)cc1 | 17.4
13 | COc1ccc(/C(C#N)=C/c2ccc(OC)c(OC)c2)cc1 | 23
14 | COc1ccc(/C(C#N)=C/c2ccccc2OC)cc1 | 36.2
15 | COc1ccc(/C=C(\C#N)c2ccc(OC)cc2)cc1 | 27.9
16 | COc1ccc(/C(C#N)=C/c2cc(OC)cc(OC)c2)cc1 | 25.5
